# Experimental data taken from patent US20260042731A1, “(2,4-DICHLOROPHENOXY)ACETIC ACID ANALOGS” (CORTEVA AGRISCIENCE LLC, priority 2022, published 2026).
# Where “and” joins values, the source holds several entries; their conditions need not be identical. Identical values can stand only once. Like-named read-outs stand apart in the source and are kept apart here.
# What was measured:
# [1] = system: Amaranthus rudis (AMATA), tall water hemp; assay: Postemergence herbicide evaluation, growth of Amaranthus rudis (AMATA); format: in vivo; settings: Amaranthus tuberculatus, post-emergence, percent reduction in plant size vs untreated control, read-out: Ave. AMATA; for pest or weed control at 280 g/ha: 280 g ae/ha; for pest or weed control at 560 g/ha: 560 g ae/ha
# [2] = system: Ambrosia artemisiifolia (AMBEL), common ragweed; assay: Postemergence herbicide evaluation, growth of Ambrosia artemisiifolia (AMBEL); format: in vivo; settings: Ambrosia artemisiifolia, post-emergence, percent reduction in plant size vs untreated control, read-out: AVE. AMBEL; for pest or weed control at 280 g/ha: 280 g ae/ha; for pest or weed control at 560 g/ha: 560 g ae/ha
# [3] = system: Abutilon theophrasti (ABUTH), velvetleaf; assay: Postemergence herbicide evaluation, growth of Abutilon theophrasti (ABUTH); format: in vivo; settings: Abutilon theophrasti, post-emergence, percent reduction in plant size vs untreated control, read-out: AVE. ABUTH; for pest or weed control at 280 g/ha: 280 g ae/ha; for pest or weed control at 560 g/ha: 560 g ae/ha
# [4] = system: Chenopodium album (CHEAL), common lambsquarters; assay: Postemergence herbicide evaluation, growth of Chenopodium album (CHEAL); format: in vivo; settings: Chenopodium album, post-emergence, percent reduction in plant size vs untreated control, read-out: Ave. CHEAL; for pest or weed control at 280 g/ha: 280 g ae/ha; for pest or weed control at 560 g/ha: 560 g ae/ha
# [5] = system: glyphosate resistant Conyza canadensis (L.) (ERICA), horseweed; assay: Postemergence herbicide evaluation, growth of Conyza canadensis (ERICA); format: in vivo; settings: Erigeron canadensis, post-emergence, percent reduction in plant size vs untreated control, read-out: Ave. ERICA; for pest or weed control at 280 g/ha: 280 g ae/ha; for pest or weed control at 560 g/ha: 560 g ae/ha
# [6] = Volatility of compounds measured by thermogravimetric analysis (TGA); format: physicochemical
# [7] = system: weeds ABUTH, AMATA, AMBEL, CHEAL, ERICA; assay: Postemergence herbicide evaluation, overall average % weed control across ABUTH, AMATA, AMBEL, CHEAL and ERICA; format: in vivo; settings: post-emergence, average over five weeds, read-out: Overall Ave % Weed Control; for pest or weed control at 280 g/ha: 280 g ae/ha; for pest or weed control at 560 g/ha: 560 g ae/ha
smiles,measurement,setting,value
O=C(COc1ccc(Cl)cc1Cl)ONC(=O)C1CCCC1 [Compound A20],pest or weed control at 280 g/ha,"[1]; 168 h, 7 DAA",91.5%
same,pest or weed control at 560 g/ha,"[1]; 168 h, 7 DAA",92.5%
same,pest or weed control at 280 g/ha,"[1]; 336 h, 14 DAA",90%
same,pest or weed control at 560 g/ha,"[1]; 336 h, 14 DAA",90%
same,pest or weed control at 280 g/ha,"[1]; 504 h, 21 DAA",100%
same,pest or weed control at 560 g/ha,"[1]; 504 h, 21 DAA",82.5%
same,pest or weed control at 280 g/ha,"[2]; 168 h, 7 DAA",72.5%
same,pest or weed control at 560 g/ha,"[2]; 168 h, 7 DAA",85%
same,pest or weed control at 280 g/ha,"[2]; 336 h, 14 DAA",100%
same,pest or weed control at 560 g/ha,"[2]; 336 h, 14 DAA",85%
same,pest or weed control at 280 g/ha,"[2]; 504 h, 21 DAA",100%
same,pest or weed control at 560 g/ha,"[2]; 504 h, 21 DAA",100%
same,pest or weed control at 280 g/ha,"[3]; 168 h, 7 DAA",60%
same,pest or weed control at 560 g/ha,"[3]; 168 h, 7 DAA",87.5%
same,pest or weed control at 280 g/ha,"[3]; 336 h, 14 DAA",79%
same,pest or weed control at 560 g/ha,"[3]; 336 h, 14 DAA",100%
same,pest or weed control at 280 g/ha,"[3]; 504 h, 21 DAA",92.5%
same,pest or weed control at 560 g/ha,"[3]; 504 h, 21 DAA",100%
same,pest or weed control at 280 g/ha,"[4]; 168 h, 7 DAA",77.5%
same,pest or weed control at 560 g/ha,"[4]; 168 h, 7 DAA",77.5%
same,pest or weed control at 280 g/ha,"[4]; 336 h, 14 DAA",98%
same,pest or weed control at 560 g/ha,"[4]; 336 h, 14 DAA",92.5%
same,pest or weed control at 280 g/ha,"[4]; 504 h, 21 DAA",95%
same,pest or weed control at 560 g/ha,"[4]; 504 h, 21 DAA",96%
same,pest or weed control at 280 g/ha,"[5]; 168 h, 7 DAA",75%
same,pest or weed control at 560 g/ha,"[5]; 168 h, 7 DAA",80%
same,pest or weed control at 280 g/ha,"[5]; 336 h, 14 DAA",98.5%
same,pest or weed control at 560 g/ha,"[5]; 336 h, 14 DAA",94.5%
same,pest or weed control at 280 g/ha,"[5]; 504 h, 21 DAA",100%
same,pest or weed control at 560 g/ha,"[5]; 504 h, 21 DAA",100%
same,"TGA Data (rate of weight loss, volatility)",[6],1.83 µg/min
same,"TGA Data (rate of weight loss, volatility)",[6]; value marked *: decomposition of the material was observed,2.946* μg/min and 1.83* μg/min
same,pest or weed control at 280 g/ha,"[7]; 168 h, 7 DAA",75.3%
same,pest or weed control at 560 g/ha,"[7]; 168 h, 7 DAA",84.5%
same,pest or weed control at 280 g/ha,"[7]; 336 h, 14 DAA",93.1%
same,pest or weed control at 560 g/ha,"[7]; 336 h, 14 DAA",92.4%
same,pest or weed control at 280 g/ha,"[7]; 504 h, 21 DAA",97.5%
same,pest or weed control at 560 g/ha,"[7]; 504 h, 21 DAA",95.7%
Cc1cc(NC(=O)COc2ccc(Cl)cc2Cl)n(C)n1 [Compound D14],pest or weed control at 280 g/ha,"[1]; 168 h, 7 DAA",75%
same,pest or weed control at 560 g/ha,"[1]; 168 h, 7 DAA",75%
same,pest or weed control at 280 g/ha,"[1]; 336 h, 14 DAA",90%
same,pest or weed control at 560 g/ha,"[1]; 336 h, 14 DAA",91.5%
same,pest or weed control at 280 g/ha,"[1]; 504 h, 21 DAA",72.5%
same,pest or weed control at 560 g/ha,"[1]; 504 h, 21 DAA",92.5%
same,pest or weed control at 280 g/ha,"[2]; 168 h, 7 DAA",80%
same,pest or weed control at 560 g/ha,"[2]; 168 h, 7 DAA",75%
same,pest or weed control at 280 g/ha,"[2]; 336 h, 14 DAA",72.5%
same,pest or weed control at 560 g/ha,"[2]; 336 h, 14 DAA",97%
same,pest or weed control at 280 g/ha,"[2]; 504 h, 21 DAA",100%
same,pest or weed control at 560 g/ha,"[2]; 504 h, 21 DAA",100%
same,pest or weed control at 280 g/ha,"[3]; 168 h, 7 DAA",37.5%
same,pest or weed control at 560 g/ha,"[3]; 168 h, 7 DAA",50%
same,pest or weed control at 280 g/ha,"[3]; 336 h, 14 DAA",45%
same,pest or weed control at 560 g/ha,"[3]; 336 h, 14 DAA",52.5%
same,pest or weed control at 280 g/ha,"[3]; 504 h, 21 DAA",52.5%
same,pest or weed control at 560 g/ha,"[3]; 504 h, 21 DAA",65%
same,pest or weed control at 280 g/ha,"[4]; 168 h, 7 DAA",72.5%
same,pest or weed control at 560 g/ha,"[4]; 168 h, 7 DAA",75%
same,pest or weed control at 280 g/ha,"[4]; 336 h, 14 DAA",96.5%
same,pest or weed control at 560 g/ha,"[4]; 336 h, 14 DAA",90%
same,pest or weed control at 280 g/ha,"[4]; 504 h, 21 DAA",95%
same,pest or weed control at 560 g/ha,"[4]; 504 h, 21 DAA",100%
same,pest or weed control at 280 g/ha,"[5]; 168 h, 7 DAA",82.5%
same,pest or weed control at 560 g/ha,"[5]; 168 h, 7 DAA",72.5%
same,pest or weed control at 280 g/ha,"[5]; 336 h, 14 DAA",94%
same,pest or weed control at 560 g/ha,"[5]; 336 h, 14 DAA",94%
same,pest or weed control at 280 g/ha,"[5]; 504 h, 21 DAA",98.5%
same,pest or weed control at 560 g/ha,"[5]; 504 h, 21 DAA",100%
same,"TGA Data (rate of weight loss, volatility)",[6],0.01234 µg/min
same,pest or weed control at 280 g/ha,"[7]; 168 h, 7 DAA",69.5%
same,pest or weed control at 560 g/ha,"[7]; 168 h, 7 DAA",69.5%
same,pest or weed control at 280 g/ha,"[7]; 336 h, 14 DAA",79.6%
same,pest or weed control at 560 g/ha,"[7]; 336 h, 14 DAA",85%
same,pest or weed control at 280 g/ha,"[7]; 504 h, 21 DAA",83.7%
same,pest or weed control at 560 g/ha,"[7]; 504 h, 21 DAA",91.5%
